# Several values for one entry are separate records, joined by “and”; a condition that tells them apart may be missing. Equal values may be shown once. Read-outs that look alike come from different tables or passages of the source.
# Assays:
# [1] = test system: Hep3B xenograft tumor; assay: Hep3B subcutaneous xenograft; format: in vivo, mouse; details: once every 2 d, 12 administrations
# Description: We further verified the effectiveness of MBP-11901 by constructing a mouse model in which Hep3B and Huh-7 were subcutaneously transplanted in addition to the human liver cancer cell line HepG2. In the case of Hep3B, the administration was initiated at a tumor volume of about 300 mm^3, once every 2 d, and the experiment was terminated after a total of 12 administrations (Figure S5). […] In contrast, tumors had completely disappeared in 1 out of 6 animals in the MBP-11901 group; 1 had only a trace of a tumor measuring approximately 30 mm^3, whereas the average tumor volume in the 6 animals was approximately 100 mm^3. […] Unlike Nexavar®, there were no side-effects relating to drug resistance or rapid tumor growth.
# [2] = test system: MDA-MB-231; assay: CCK-8 cell proliferation/cytotoxicity assay; format: cell-based; details: Homo sapiens, MDA-MB-231, 24 h
# [3] = biological target: T1, MAP4K2 (Homo sapiens, UniProt Q12851); assay: KINOMEscan competition binding / KdELECT
# T1 construct: purchased Eurofins DiscoverX Corporation
# T1 sequence (Q12851 whole entry): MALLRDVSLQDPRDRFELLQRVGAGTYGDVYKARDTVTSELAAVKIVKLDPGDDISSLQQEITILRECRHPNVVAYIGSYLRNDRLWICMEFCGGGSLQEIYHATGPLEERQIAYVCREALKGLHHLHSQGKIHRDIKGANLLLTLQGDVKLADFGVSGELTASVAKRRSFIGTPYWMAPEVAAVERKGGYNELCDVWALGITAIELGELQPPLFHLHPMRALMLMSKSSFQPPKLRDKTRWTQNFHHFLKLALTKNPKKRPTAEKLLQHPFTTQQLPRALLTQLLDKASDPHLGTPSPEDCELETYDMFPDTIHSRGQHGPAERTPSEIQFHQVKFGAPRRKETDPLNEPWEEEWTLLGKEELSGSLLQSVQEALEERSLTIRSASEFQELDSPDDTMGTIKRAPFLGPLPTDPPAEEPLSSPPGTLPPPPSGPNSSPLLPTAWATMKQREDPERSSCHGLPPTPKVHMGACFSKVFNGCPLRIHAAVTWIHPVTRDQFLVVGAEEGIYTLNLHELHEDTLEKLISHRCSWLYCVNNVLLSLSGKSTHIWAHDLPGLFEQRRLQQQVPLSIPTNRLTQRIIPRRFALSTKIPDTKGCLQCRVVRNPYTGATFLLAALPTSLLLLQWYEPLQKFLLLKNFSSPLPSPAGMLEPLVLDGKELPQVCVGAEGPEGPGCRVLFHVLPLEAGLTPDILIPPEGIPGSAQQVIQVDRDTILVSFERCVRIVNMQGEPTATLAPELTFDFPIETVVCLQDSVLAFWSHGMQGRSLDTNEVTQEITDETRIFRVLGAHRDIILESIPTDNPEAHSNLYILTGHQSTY
# Protocol: (§1) The profiling of MBP-11901 against a panel of 468 kinases was performed by DiscoverX using KINOMEscan technology, an active-site-dependent competition-binding assay (Eurofins DiscoverX Corporation, San Diego, CA, USA). Binding constants (Kd) were calculated by DiscoverX using KdELECT technology, a widely used assay for comparing selectivity across the kinome. The DiscoverX platform reports the thermodynamic Kd to facilitate direct comparison of inhibitor affinity across the kinome, independent of ATP concentration.
# [4] = biological target: T2, MEK5 (Homo sapiens, UniProt Q13163); assay: KINOMEscan competition binding / KdELECT
# T2 construct: purchased Eurofins DiscoverX Corporation
# T2 sequence (Q13163 whole entry): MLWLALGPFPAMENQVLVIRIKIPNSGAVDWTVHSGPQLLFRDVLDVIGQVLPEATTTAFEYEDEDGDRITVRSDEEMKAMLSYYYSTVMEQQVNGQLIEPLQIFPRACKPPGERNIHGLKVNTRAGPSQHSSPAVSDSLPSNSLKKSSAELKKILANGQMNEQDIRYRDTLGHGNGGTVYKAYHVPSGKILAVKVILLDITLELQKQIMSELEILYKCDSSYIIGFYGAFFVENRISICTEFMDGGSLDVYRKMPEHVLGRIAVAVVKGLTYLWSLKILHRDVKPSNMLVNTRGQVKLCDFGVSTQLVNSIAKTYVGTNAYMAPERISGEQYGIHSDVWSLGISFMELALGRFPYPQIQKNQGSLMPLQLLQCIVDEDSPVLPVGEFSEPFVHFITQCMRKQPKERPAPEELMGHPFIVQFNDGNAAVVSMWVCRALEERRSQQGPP
# Protocol: as §1
# [5] = biological target: T3, VEGFR2 (Homo sapiens, UniProt P35968); assay: KINOMEscan competition binding / KdELECT
# T3 construct: purchased Eurofins DiscoverX Corporation
# T3 sequence (P35968 20-1356): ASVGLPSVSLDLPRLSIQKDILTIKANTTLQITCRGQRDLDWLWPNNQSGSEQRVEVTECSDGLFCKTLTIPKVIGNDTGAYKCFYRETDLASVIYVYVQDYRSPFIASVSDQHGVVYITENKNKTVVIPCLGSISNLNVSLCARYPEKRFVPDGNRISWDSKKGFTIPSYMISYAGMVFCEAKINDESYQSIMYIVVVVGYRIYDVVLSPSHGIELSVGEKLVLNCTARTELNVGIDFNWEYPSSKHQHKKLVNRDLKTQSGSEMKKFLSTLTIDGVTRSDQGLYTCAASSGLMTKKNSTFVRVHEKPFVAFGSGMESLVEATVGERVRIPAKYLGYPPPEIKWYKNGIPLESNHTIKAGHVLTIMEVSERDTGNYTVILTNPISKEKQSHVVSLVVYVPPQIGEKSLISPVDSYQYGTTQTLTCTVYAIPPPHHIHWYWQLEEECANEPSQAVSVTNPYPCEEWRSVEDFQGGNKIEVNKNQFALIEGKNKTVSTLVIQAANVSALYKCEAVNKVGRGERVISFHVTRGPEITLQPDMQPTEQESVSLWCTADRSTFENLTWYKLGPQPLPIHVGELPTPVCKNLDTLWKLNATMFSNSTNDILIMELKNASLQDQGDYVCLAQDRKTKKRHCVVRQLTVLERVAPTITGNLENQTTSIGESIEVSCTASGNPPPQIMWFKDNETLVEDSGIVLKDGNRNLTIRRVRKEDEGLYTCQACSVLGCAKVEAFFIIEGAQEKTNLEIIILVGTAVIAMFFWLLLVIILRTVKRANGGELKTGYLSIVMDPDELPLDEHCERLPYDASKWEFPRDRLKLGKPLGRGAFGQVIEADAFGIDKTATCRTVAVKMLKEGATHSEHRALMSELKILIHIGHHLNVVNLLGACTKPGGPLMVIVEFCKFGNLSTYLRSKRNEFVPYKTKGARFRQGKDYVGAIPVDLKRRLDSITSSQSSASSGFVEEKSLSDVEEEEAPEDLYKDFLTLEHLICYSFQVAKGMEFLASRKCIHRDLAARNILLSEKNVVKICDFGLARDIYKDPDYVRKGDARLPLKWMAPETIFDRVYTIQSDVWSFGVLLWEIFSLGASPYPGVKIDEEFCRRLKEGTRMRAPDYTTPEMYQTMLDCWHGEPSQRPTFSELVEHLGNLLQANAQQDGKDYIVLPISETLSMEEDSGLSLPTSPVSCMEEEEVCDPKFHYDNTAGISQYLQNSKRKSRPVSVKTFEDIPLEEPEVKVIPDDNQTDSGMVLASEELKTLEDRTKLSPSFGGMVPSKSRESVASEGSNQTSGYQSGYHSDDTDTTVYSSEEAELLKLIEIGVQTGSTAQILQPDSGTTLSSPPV
# Protocol: as §1
# [6] = biological target: T4, PDGFRβ (Homo sapiens, UniProt P09619); assay: KINOMEscan competition binding / KdELECT
# T4 construct: purchased Eurofins DiscoverX Corporation
# T4 sequence (P09619 33-1106): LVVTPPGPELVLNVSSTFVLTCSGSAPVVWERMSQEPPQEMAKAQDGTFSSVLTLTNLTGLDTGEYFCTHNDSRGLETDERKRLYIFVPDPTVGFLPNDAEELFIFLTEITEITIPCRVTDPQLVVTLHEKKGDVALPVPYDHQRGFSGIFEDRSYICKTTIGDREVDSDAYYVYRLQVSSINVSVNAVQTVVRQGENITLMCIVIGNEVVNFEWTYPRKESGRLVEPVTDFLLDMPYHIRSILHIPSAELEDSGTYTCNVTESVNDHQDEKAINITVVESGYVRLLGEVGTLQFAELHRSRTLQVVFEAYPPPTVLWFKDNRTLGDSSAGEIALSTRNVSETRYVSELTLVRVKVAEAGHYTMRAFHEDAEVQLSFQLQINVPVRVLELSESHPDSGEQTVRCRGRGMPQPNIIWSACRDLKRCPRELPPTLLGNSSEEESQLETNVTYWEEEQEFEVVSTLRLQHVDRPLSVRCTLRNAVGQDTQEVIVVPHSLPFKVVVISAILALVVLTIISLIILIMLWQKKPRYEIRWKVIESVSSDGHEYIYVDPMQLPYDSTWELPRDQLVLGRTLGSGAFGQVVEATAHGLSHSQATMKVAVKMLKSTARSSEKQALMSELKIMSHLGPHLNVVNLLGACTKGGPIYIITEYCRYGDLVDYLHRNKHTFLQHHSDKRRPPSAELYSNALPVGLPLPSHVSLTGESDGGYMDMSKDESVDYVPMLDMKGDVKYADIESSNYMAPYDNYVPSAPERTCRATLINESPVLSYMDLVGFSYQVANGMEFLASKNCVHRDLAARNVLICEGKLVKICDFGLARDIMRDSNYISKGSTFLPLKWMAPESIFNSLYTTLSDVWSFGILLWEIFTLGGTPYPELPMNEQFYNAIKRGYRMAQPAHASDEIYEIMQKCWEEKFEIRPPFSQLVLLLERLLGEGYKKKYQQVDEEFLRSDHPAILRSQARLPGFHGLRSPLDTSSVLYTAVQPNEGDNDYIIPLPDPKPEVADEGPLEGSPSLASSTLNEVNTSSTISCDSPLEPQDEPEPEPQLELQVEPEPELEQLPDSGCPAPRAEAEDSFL
# Protocol: as §1
# [7] = biological target: T5, FLT3 (Homo sapiens, UniProt P36888); assay: KINOMEscan competition binding / KdELECT
# T5 construct: purchased Eurofins DiscoverX Corporation
# T5 sequence (P36888 27-993): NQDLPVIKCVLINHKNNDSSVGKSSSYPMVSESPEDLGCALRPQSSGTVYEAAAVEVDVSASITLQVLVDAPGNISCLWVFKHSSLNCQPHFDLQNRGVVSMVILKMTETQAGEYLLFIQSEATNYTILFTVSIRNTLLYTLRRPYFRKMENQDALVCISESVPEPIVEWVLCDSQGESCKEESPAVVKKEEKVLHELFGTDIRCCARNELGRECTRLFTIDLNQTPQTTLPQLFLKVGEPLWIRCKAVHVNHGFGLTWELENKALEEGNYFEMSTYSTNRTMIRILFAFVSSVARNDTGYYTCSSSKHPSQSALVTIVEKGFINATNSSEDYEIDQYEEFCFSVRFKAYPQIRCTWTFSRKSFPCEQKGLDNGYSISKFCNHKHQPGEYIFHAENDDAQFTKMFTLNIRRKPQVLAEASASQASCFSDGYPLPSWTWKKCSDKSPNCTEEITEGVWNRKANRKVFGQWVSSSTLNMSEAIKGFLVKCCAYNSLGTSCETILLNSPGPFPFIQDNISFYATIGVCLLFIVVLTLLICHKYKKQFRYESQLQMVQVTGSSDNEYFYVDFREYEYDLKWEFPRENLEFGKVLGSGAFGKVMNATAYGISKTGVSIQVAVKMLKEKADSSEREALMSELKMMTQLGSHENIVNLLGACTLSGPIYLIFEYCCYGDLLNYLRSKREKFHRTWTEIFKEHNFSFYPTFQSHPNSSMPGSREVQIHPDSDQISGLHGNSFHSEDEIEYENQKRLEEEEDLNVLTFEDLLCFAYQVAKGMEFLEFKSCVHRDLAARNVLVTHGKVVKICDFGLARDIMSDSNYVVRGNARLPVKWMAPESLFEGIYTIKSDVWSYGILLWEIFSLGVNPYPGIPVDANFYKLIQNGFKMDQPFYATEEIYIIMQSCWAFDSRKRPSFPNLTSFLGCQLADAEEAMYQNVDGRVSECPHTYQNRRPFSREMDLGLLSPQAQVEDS
# Protocol: as §1
# [8] = test system: HepG2 cells; assay: Flow cytometry analysis of cell death (sub-G1); format: cell-based, human; details: 50 μM
# Protocol: Approximately 1.5 × 10^6 HepG2 cells were suspended in […] PBS, and then […] 95% ethanol was added while vortexing. […] Incubation was continued at 37 °C for 30 min. Cellular DNA was then stained by applying […] propidium iodide (50 μg/mL) for 30 min at 25 °C. Stained cells were analyzed on a FACScan flow cytometer for relative DNA content based on increased red fluorescence.
# [9] = test system: HepG2 cells; assay: Transwell migration and invasion assay; format: cell-based, human; details: HepG2, dose-dependent
# Protocol: For the migration assay, HepG2 cells were seeded into the upper Transwell chamber at a density of 2 × 10^4 cells and incubated for 24 h. For the invasion assay, 100 μL of Matrigel: serum-free media (1:4) mixture was placed on the filter membrane in the upper chamber and incubated (37 °C, 4 h) to seed cells. Cells were exposed to MBP-11901 and sorafenib for 2 h. Then, the medium in the upper chamber was changed to serum-free medium, whereas the medium in the lower chamber was changed to a medium containing 10% FBS. The medium was replaced once every 2–3 d. Following 6 d incubation, the upper surfaces of the filters were scraped 5 times with cotton swabs to remove nonmigrated cells, whereas cells crossing the membrane into the lower chamber were stained with 1% (w/v) crystal violet for 30 min. Crystal violet was removed and cells were washed with tap water. For the migration assay, after drying at 25 °C, 10% acetic acid solution was added to cells, and left to react in a shaker for 30 min. Absorbance was measured at 590 nm using a microplate reader (SpectraMax i3, Molecular Devices). For the invasion assay, the number of migrated cells was counted.
# [10] = Pharmacokinetics in mice (data not shown); format: in vivo
# [11] = test system: HepG2 xenograft tumor; assay: HepG2 subcutaneous xenograft, dose study (19 d); details: for Toxic deaths/total: 19 d; for Body weight loss rate (%) / Tumor growth inhibition rate (%): day 19; for tumor weight per mouse: after 19 d, vehicle control 0.31 ± 0.089 g; for average tumor volume: end of 9 administrations, start 200 mm^3, saline approx. 1000 mm^3
# [12] = test system: HepG2 xenograft tumor; details: for Tumor growth inhibition rate (%): 42 d (calculated on day 41); for Body weight loss rate (%): day 41
# [13] = 10000 nM, lower = stronger binding, read-out: % Control
# [14] = tumors, compared with vehicle control
smiles,measurement,setting,value
NCC(N)C(=O)Nc1ccc(-c2nc3ccccc3s2)cc1 (centres unmarked) [MBP-11901],animals in which tumors had completely disappeared,[1],1 out of 6
same,average tumor volume,"[1]; start about 300 mm^3, saline approx. 1400 mm^3",approximately 100 mm^3
same,IC50,[2],62 ± 6.5 µM
same,remaining binding at 10 µM,[3]; [13],8.6%
same,Kd,"[3]; MAP4K2, mean ± S.D. (n = 2)",1.1 µM
same,remaining binding at 10 µM,[4]; [13],3.3%
same,Kd,[4]; MEK5,> 30 µM
same,remaining binding at 10 µM,[5]; [13],30%
same,Kd,"[5]; VEGFR2, mean ± S.D. (n = 2)",3.55 ± 0.25 µM
same,remaining binding at 10 µM,[6]; [13],33%
same,Kd,"[6]; PDGFRβ, mean ± S.D. (n = 2)",4 ± 0.22 µM
same,remaining binding at 10 µM,[7]; [13],16%
same,Kd,"[7]; FLT3, mean ± S.D. (n = 2)",0.295 ± 0.005 µM
same,SubG1,[8]; 8 h,10.26%
same,SubG1,[8]; 16 h,17.39%
same,SubG1,[8]; 24 h,34.68%
same,migration and invasion of tumor cells,[9],highly inhibited
same,bioavailability,[10],significantly high
same,half-life,[10],long
same,Toxic deaths/total,[11]; 40 mg/kg oral once every 2 d,0/8
same,Body weight loss rate (%),[11]; 40 mg/kg oral once every 2 d,2.00 ± 2.47 %
same,Tumor growth inhibition rate (%),[11]; 40 mg/kg oral once every 2 d,61.41 ± 0.45%
same,tumor weight per mouse,[11]; 40 mg/kg,0.082 ± 0.063 g
same,average tumor volume,[11]; 40 mg/kg,approximately 350 mm^3
same,animals in which the tumor completely disappeared,[11]; 60 mg/kg group,3 out of 8
same,Toxic deaths/total,[11]; 60 mg/kg oral once every 2 d,0/8
same,Body weight loss rate (%),[11]; 60 mg/kg oral once every 2 d,1.50 ± 1.97 %
same,Tumor growth inhibition rate (%),[11]; 60 mg/kg oral once every 2 d,85.26 ± 0.36%
same,tumor weight per mouse,[11]; 60 mg/kg,0.025 ± 0.035 g
same,average tumor volume,[11]; 60 mg/kg,~150 mm^3
same,animals in which the tumor completely disappeared,[11]; 82 mg/kg group,4 out of 8
same,Toxic deaths/total,[11]; 82 mg/kg oral once every 2 d,0/8
same,Body weight loss rate (%),[11]; 82 mg/kg oral once every 2 d,1.78 ± 4.40 %
same,Tumor growth inhibition rate (%),[11]; 82 mg/kg oral once every 2 d,92.54 ± 0.02% and 92.54 ± 0.0 %
same,tumor weight per mouse,[11]; 82 mg/kg,0.011 ± 0.009 g
same,average tumor volume,[11]; 82 mg/kg,~70 mm^3
same,apoptosis in tumors (cleaved caspase-3),[11]; [14],high level of apoptosis
same,proliferation of tumor cells (Ki-67),[11]; [14],significant reduction
same,Toxic deaths/total,"[12]; 82 mg/kg oral 1T/2D, 42 d",0/6
same,Tumor growth inhibition rate (%),[12]; 82 mg/kg oral 1T/2D,99.82 ± 0.33%
same,Body weight loss rate (%),[12]; 82 mg/kg oral 1T/2D,1.85 ± 3.70%
same,Toxic deaths/total,"[12]; 82 mg/kg oral 1T/3D, 42 d",0/6
same,Tumor growth inhibition rate (%),[12]; 82 mg/kg oral 1T/3D,99.51 ± 0.81%
same,Body weight loss rate (%),[12]; 82 mg/kg oral 1T/3D,−0.43 ± 3.76 %
same,Toxic deaths/total,"[12]; 82 mg/kg oral 1T/4D, 42 d",0/6
same,Tumor growth inhibition rate (%),[12]; 82 mg/kg oral 1T/4D,99.48 ± 0.60%
same,Body weight loss rate (%),[12]; 82 mg/kg oral 1T/4D,−4.29 ± 0.59 %
same,histological analysis of the liver and kidney,[12]; 42 d,no apparent toxicity
same,"animals in which tumors had disappeared, out of a total of 6","[12]; all MBP-11901 groups, after 42 d",3–4
same,GPT values,"[12]; serum, MBP-11901 1T/3D and 1T/4D groups",significantly outside the normal range
